Measurements taken from ChEMBL document CHEMBL1201862, “PubChem BioAssay data set” (2004).
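Where inhibition never reached the appropriate level, the endpoint shown equals the highest concentration tested. Otherwise, values were interpolated linearly from a five-concentration, 48-hour dose response in 96-well plates. GI50: concentration for 50% inhibition of growth.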 The source made the active and inactive calls. Cut-off read from the data, not from the text of the source: active = GI50 up to about 1.1 µM and inactive = higher.

Key:
Experiment in all cases: NCI anticancer screen, dose series, 48 h
[1] = tested on: HL-60
[2] = tested on: SW-620
[3] = tested on: NCI-H460
[4] = tested on: SN12C
[5] = tested on: EKVX
[6] = tested on: K562
[7] = tested on: COLO 205
[8] = tested on: ACHN
[9] = tested on: NCI-H23
[10] = tested on: OVCAR-8
[11] = tested on: SNB-75
[12] = tested on: SF-268
[13] = tested on: SR
[14] = tested on: OVCAR-3
[15] = tested on: OVCAR-5
[16] = tested on: CAKI-1
[17] = tested on: UACC-257
[18] = tested on: DU-145
[19] = tested on: MDA-MB-231

Measured: GI50

CC1CC2C(=O)N(c3ccccc3)C(=O)C2c2[nH]c3ccccc3c21 (configuration not stated)
inactive: [1] 31.8 µM | [2] > 100 µM | [3] 63.7 µM | [4] > 100 µM | [5] > 100 µM | [6] 33 µM | [7] 73.3 µM | [8] 57.7 µM | [9] 58.9 µM | [10] 59.3 µM | [11] 28.9 µM | [12] > 100 µM | [13] 29.2 µM | [14] 48.2 µM

Cn1nc(-c2ccccc2)c(N=[N+]=[N-])cc1=O
inactive: [1] > 100 µM | [15] > 100 µM | [2] > 100 µM | [3] > 100 µM | [4] > 100 µM | [5] > 100 µM | [6] > 100 µM | [7] > 100 µM | [16] > 100 µM | [8] > 100 µM | [9] > 100 µM | [10] > 100 µM | [12] > 100 µM | [17] > 100 µM | [13] > 100 µM | [14] > 100 µM

Cc1ccc(S(=O)(=O)N2CCC3(C(/C=C/c4ccccc4)=Nc4ccccc43)C2c2ccccc2)cc1 (configuration not stated)
inactive: [1] > 100 µM | [15] > 100 µM | [2] 1.52 µM | [3] > 100 µM | [4] > 100 µM | [5] > 100 µM | [6] 21.3 µM | [7] > 100 µM | [16] > 100 µM | [8] > 100 µM | [9] > 100 µM | [10] > 100 µM | [11] 87.3 µM | [12] > 100 µM | [17] > 100 µM | [13] > 100 µM | [14] > 100 µM

CCCCCCCCCCCCCC(=O)OCC1OC(n2cc(F)c(=O)[nH]c2=O)C(NC(=O)OCc2ccccc2)C(OC(=O)CCCCCCCCCCCCC)C1O (configuration not stated)
inactive: [1] > 100 µM | [15] 25.6 µM | [2] > 100 µM | [3] > 100 µM | [4] > 100 µM | [5] > 100 µM | [6] > 100 µM | [7] > 100 µM | [16] > 100 µM | [8] > 100 µM | [9] > 100 µM | [10] > 100 µM | [11] > 100 µM | [12] > 100 µM | [17] > 100 µM | [13] > 100 µM | [14] > 100 µM

Nc1nc2c(ncn2C2OC(CO)C(O)C2O)c(=O)o1 (configuration not stated)
inactive: [1] > 45.1 µM | [15] > 100 µM | [2] > 33.4 µM | [3] > 100 µM | [4] > 100 µM | [5] > 100 µM | [6] > 21.9 µM | [7] > 42 µM | [16] > 100 µM | [8] > 83.8 µM | [9] > 84.1 µM | [10] > 100 µM | [11] > 100 µM | [12] > 100 µM | [17] > 100 µM | [14] > 100 µM | [18] > 100 µM

O=C(CSCC(=O)N/N=C/c1cccs1)N/N=C/c1cccs1
inactive: [1] > 100 µM | [15] > 100 µM | [19] 75.9 µM | [2] > 100 µM | [3] > 100 µM | [4] > 100 µM | [5] 61.5 µM | [6] > 100 µM | [16] 46.6 µM | [8] 64.4 µM | [9] 38.8 µM | [10] 37 µM | [11] > 100 µM | [12] 72.9 µM | [17] > 100 µM | [14] 38.6 µM | [18] 54.3 µM

Cc1ccc(C)c(NC(=O)CC/C(=N\NC(=O)C(N)=O)C(C)C(=O)c2ccc(O)cc2)c1 (configuration not stated)
inactive: [1] > 100 µM | [15] > 100 µM | [2] > 100 µM | [3] > 100 µM | [4] > 100 µM | [5] > 100 µM | [6] > 100 µM | [7] > 100 µM | [16] > 100 µM | [8] > 100 µM | [9] > 100 µM | [10] > 100 µM | [12] > 100 µM | [17] > 100 µM | [13] > 100 µM | [14] > 100 µM

CC(=O)Nc1ccc(S(=O)(=O)NN(C)S(=O)(=O)c2ccc(C)cc2)cc1
inactive: [1] > 100 µM | [15] > 100 µM | [2] > 100 µM | [3] > 100 µM | [4] > 100 µM | [5] > 100 µM | [6] > 100 µM | [7] > 100 µM | [16] > 100 µM | [8] > 100 µM | [9] > 100 µM | [10] > 100 µM | [12] > 100 µM | [17] > 100 µM | [13] > 100 µM | [14] > 100 µM

O=C1NC2(C=Cc3c(ccc4ccccc34)O2)Oc2ccccc21 (configuration not stated)
inactive: [1] 4.81 µM | [15] 36.6 µM | [2] 15 µM | [3] 27.2 µM | [4] 17.4 µM | [5] 21.1 µM | [6] 3.58 µM | [7] 14.8 µM | [8] 18.7 µM | [9] 26.7 µM | [10] 26.9 µM | [11] 15.1 µM | [12] 17.2 µM | [13] 5.15 µM | [14] 13.4 µM

COc1ccc(-c2[nH]c3ccccc3c2CCNS(=O)(=O)c2ccc(C)cc2)cc1
inactive: [1] 6.7 µM | [15] > 10 µM | [2] > 10 µM | [3] 6.17 µM | [4] > 10 µM | [5] > 7.93 µM | [6] 5.06 µM | [7] 1.83 µM | [16] > 10 µM | [8] > 8.59 µM | [9] > 10 µM | [10] > 7.91 µM | [11] > 10 µM | [12] > 10 µM | [17] > 8.34 µM | [13] > 10 µM | [14] 7.23 µM

CCOC(=O)N1CCc2cc(OC)c(OC)c3c2C1CC3=O (configuration not stated)
inactive: [1] > 100 µM | [15] > 100 µM | [2] > 100 µM | [3] > 100 µM | [4] > 100 µM | [6] > 100 µM | [7] > 100 µM | [16] > 100 µM | [8] > 100 µM | [10] > 100 µM | [11] > 100 µM | [12] > 100 µM | [17] > 100 µM | [13] > 100 µM

OCCN1CCN2C=C(C3CCCC4N(CCO)CCN34)CCC21 (configuration not stated)
inactive: [1] 5.28 µM | [15] > 100 µM | [2] 23.6 µM | [3] > 100 µM | [4] 39.5 µM | [5] > 69.7 µM | [6] 11.6 µM | [7] > 65.2 µM | [16] 48 µM | [8] > 49.2 µM | [9] 43 µM | [10] 35.2 µM | [11] 34.8 µM | [12] 49.8 µM | [17] > 100 µM | [13] 5.68 µM | [14] 35.4 µM

COC(=O)c1c(CC#N)cccc1CC#N
inactive: [1] > 100 µM | [15] > 100 µM | [2] > 100 µM | [3] > 100 µM | [4] > 100 µM | [5] > 100 µM | [6] > 100 µM | [7] > 100 µM | [16] > 100 µM | [8] > 100 µM | [9] > 100 µM | [10] > 100 µM | [11] > 100 µM | [12] > 100 µM | [17] > 100 µM | [13] > 100 µM | [14] > 100 µM

O=C1c2ccccc2C(=O)N1C/C=N/NS(=O)(=O)c1ccc(F)cc1
inactive: [1] > 100 µM | [2] > 100 µM | [4] > 100 µM | [5] > 100 µM | [6] > 100 µM | [7] > 100 µM | [16] > 100 µM | [8] > 100 µM | [9] > 100 µM | [10] > 100 µM | [11] 59 µM | [12] > 100 µM | [17] > 100 µM | [13] > 100 µM

Cn1c(=O)c2c(ncn2CCCCn2ccnc2[N+](=O)[O-])n(C)c1=O
inactive: [1] > 100 µM | [15] > 100 µM | [2] > 100 µM | [3] > 100 µM | [4] > 100 µM | [5] > 100 µM | [6] > 100 µM | [7] > 100 µM | [8] > 100 µM | [9] > 100 µM | [10] > 100 µM | [11] 38.3 µM | [12] > 100 µM | [13] > 100 µM | [14] > 100 µM

CC(=O)OC[C@]1(O)CC[C@@]23CC1C[C@@H]2CCC1C(C)(C)CCC[C@@]13C (some centres not stated)
inactive: [1] 4.95 µM | [15] 11.3 µM | [2] 10.7 µM | [3] 14.7 µM | [4] 12.2 µM | [6] 4.76 µM | [7] 17.8 µM | [16] 18.2 µM | [8] 15.7 µM | [9] 12.8 µM | [10] 16.6 µM | [11] 16.1 µM | [12] 14.9 µM | [17] 15.8 µM | [13] 8.89 µM | [14] 17.1 µM

Sc1nn2c(Cc3ccccc3)nnc2s1
inactive: [1] > 100 µM | [15] > 100 µM | [19] > 100 µM | [2] > 100 µM | [3] > 100 µM | [4] > 100 µM | [5] > 100 µM | [6] > 100 µM | [7] > 100 µM | [16] > 100 µM | [8] > 100 µM | [9] > 100 µM | [10] > 100 µM | [12] > 100 µM | [17] > 100 µM | [14] > 100 µM | [18] > 100 µM
